The results in this text go back to publication PMC4431184, “The Use of the LanthaScreen TR-FRET CAR Coactivator Assay in the Characterization of Constitutive Androstane Receptor (CAR) Inverse Agonists” (Sensors (Basel, Switzerland), 2015).

Assay [1] addresses T1, human CAR ligand-binding domain (LBD) (Homo sapiens, UniProt Q14994).
T1 sequence (Q14994 109-352 limits assumed): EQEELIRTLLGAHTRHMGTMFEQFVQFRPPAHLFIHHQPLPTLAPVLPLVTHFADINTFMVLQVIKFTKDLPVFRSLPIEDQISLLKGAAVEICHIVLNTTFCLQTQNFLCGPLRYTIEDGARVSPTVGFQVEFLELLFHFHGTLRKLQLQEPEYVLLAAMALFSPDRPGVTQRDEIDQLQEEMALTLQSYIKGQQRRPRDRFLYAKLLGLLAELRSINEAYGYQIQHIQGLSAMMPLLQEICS
Put plainly: LanthaScreen TR-FRET CAR Coactivator Assay. The assay is classed as biochemical. Particulars: for fold activation compared to vehicle control: CITCO 10 μM; for IC50: IC50 (95% Conf. Interv.), TR-FRET CAR Assay. The source says:
The LanthaScreen^TMTR-FRET CAR Coactivator Binding Assay (Cat. No. PV4836, now produced by Thermo) was used with slight modifications of the manufacturer’s protocol. The assay uses two fluorophores: a terbium-labeled anti-GST antibody interacting with glutathione-S-transferase (GST) tagged human CAR ligand-binding domain (LBD) and a fluorescein-labeled PGC1α coactivator peptide (Figure 1). […] Thus, this energy transfer is detected by an increase in the fluorescence emission of the acceptor (fluorescein) and a decrease in the fluorescence emission of the donor (terbium). To quantify the process, TR-FRET is expressed as a ratio of the intensities of the acceptor and donor fluorophores. […] Incubation time was optimized from 1 to 4 h at room temperature and protected from light. […] According to the recommended protocol of the manufacturer, CAR-LBD is added to the solution of test compounds, followed by the addition of a mixture of the fluorescein-coactivator peptide and terbium-labeled anti-GST antibody. In the study we also tested to determine if the order of adding the constituents in the mixture may have an influence on the sensitivity and reproducibility of the assay. […] The terbium was excited using a 340-nm excitation filter with a 30-nm bandwidth and fluorescein was excited with the first emission peak of terbium centered at 495 nm. Energy transfer to fluorescein emission (520 nm) is then measured in the silent region between the first two terbium emission peaks centered at 490 and 545 nm (see Graphical Abstract). […] Delay time was set at 100 μs and integration time 200 μs. Gains set to 100 were the use constant in all the experiments. The 520 nm/495 nm TR-FRET ratio was then calculated. […] The values above the baseline represent activation of CAR LBD-PGC1α interaction and agonistic activity of the tested ligand. The experiments were performed at least three times in quadruplicates. Data are presented as the means and S.D. from three independent experiments (n = 3). […] Dose-response curves were generated by plotting the emission TR-FRET ratio vs. the log of a ligand (in μM). To determine the half maximal inhibitory concentration (IC50) value, the data were fitted using an equation for a sigmoidal dose response inhibition (with a varying slope) using the software GraphPad™ PRISM version 6.05. Z-factors were calculated using the method of Zhang et al..
On the technique in general: Time-resolved FRET reads energy transfer from a long-lived donor to a nearby acceptor.

The target of assay [2] is T2, human CAR LBD (Homo sapiens, UniProt Q14994).
T2 construct: encoding C (151–349 aa, helices 3–12, pCAR-C/VP16); N (103–150 aa, helix 1, pCAR-N/GAL4) terminal parts of human CAR LBD; expressed in transfected cells; host or cells: HepG2
T2 sequence (Q14994 103-150 isoform Q14994-2): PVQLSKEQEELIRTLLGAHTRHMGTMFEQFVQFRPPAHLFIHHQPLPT
T2 sequence (Q14994 151-348 isoform Q14994-2): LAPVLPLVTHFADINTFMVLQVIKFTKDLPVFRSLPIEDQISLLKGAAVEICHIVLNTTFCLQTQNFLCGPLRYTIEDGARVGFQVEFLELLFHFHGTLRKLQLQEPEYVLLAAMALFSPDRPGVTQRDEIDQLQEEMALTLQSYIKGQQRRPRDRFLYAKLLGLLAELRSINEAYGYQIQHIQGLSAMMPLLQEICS
Put plainly: CAR LBD assembly assay (GAL4/VP16 luciferase reporter in HepG2 cells). The assay is classed as cell-based. The note with it: CITCO 1 µM, up to highest studied concentration 30 µM. On the procedure: The CAR LBD assembly assay was performed according to the protocol we described in our latest report. The CAR LBD assembly assay is based on two hybrid expression constructs encoding C (151–349 aa, helices 3–12, pCAR-C/VP16) and N (103–150 aa, helix 1, pCAR-N/GAL4) terminal parts of human CAR LBD that are co-transfected together with the pGL5-luc luciferase gene reporter plasmid (Promega) containing GAL4 binding sites. When the CAR LBD interacts with a ligand (both agonist and antagonist), connection of the helix 1 to CAR LBD helices 3–12 promotes firefly luciferase activation. Thus, the assay monitor interaction of CAR LBD with ligands rather than its activation or deactivation.

Structures are written as SMILES.

As for `Clc1ccc(-c2nc3sccn3c2C=NOCc2ccc(Cl)c(Cl)c2)cc1` [CITCO, 6-(4-Chlorophenyl)imidazo[2,1-b][1,3]thiazole-5-carbaldehyde O-(3,4-dichlorobenzyl)oxime], the “fold activation compared to vehicle control” value in assay [1] (modified order: CAR-LBD and fluorescein-/terbium-labeled reagents before the agonist (Figure 2B)) is given as 1.94 fold; in assay [1] (modified order: ligand, fluorescein-PGC1α and Tb antibody, then CAR-LBD (Figure 2A)), 2.26 fold; in assay [1] (standard procedure (Figure 2C)) it was 2.56 fold.

As to `C[C@]12CC[C@@H](O)C[C@@H]1CC[C@@H]1[C@@H]2CC[C@]2(C)C=CC[C@@H]12` [Androstenol, 5α-androst-16-en-3α-ol], the “inhibition of the activity of CITCO” value in assay [2] is “weakest inhibition”; in assay [2] (listed as androstenol) it was “weaker inhibition”. In addition, the IC50 in assay [1] (CITCO 1 μM, antagonist mode, with agonist CITCO 1 μM) was 313 µM; in assay [1] (No CITCO, inverse agonist mode, reduction of CAR constitutive activity) it was 0.35 µM. Further, in assay [1] (with CITCO 1 μM), the “concentration at which consistent antagonistic effect on CITCO was observed” value stood at 30 µM. Also, in assay [1] (with CITCO 1 μM, serial dilution), the “inhibition of CITCO-mediated CAR LBD interaction with PGC1α” value is recorded as “did not show any significant inhibition”.

As to `Clc1ccccc1C(c1ccccc1)(c1ccccc1)n1ccnc1` [Clotrimazole, 1-[(2-Chlorophenyl)diphenylmethyl]-1H-imidazole], in assay [1] (10 μM, no CITCO), the “effect on interaction of CAR LBD with the PGC1α coactivator” value is “almost completely inhibited”. For the same compound, the “effect on constitutive activity of CAR” value in assay [1] (30 μM) was “abolish the constitutive activity of CAR”; in assay [1] (concentrations of 20 and 30 μM), “abolished constitutive activity of CAR”. For the same compound, in assay [1] (30 μM, with CITCO), the “effect on CITCO-mediated CAR LBD interaction with PGC1α” value was “completely abrogated the effect of CITCO”. Further, the “concentration with significant inhibition of CAR LBD constitutive activity” value in assay [1] (no CITCO) came to 0.01 µM.

The IC50 is the concentration needed to halve the response being measured. High values mean weaker potency in that assay, low ones greater potency in that assay.
